This is an account of results in ChEMBL document CHEMBL4602676, “Discovery and Development of 3-(6-Chloropyridine-3-yloxymethyl)-2-azabicyclo[3.1.0]hexane Hydrochloride (SUVN-911): A Novel, Potent, Selective, and Orally Active Neuronal Nicotinic Acetylcholine α4β2 Receptor Antagonist for the Treatment of Depression” (J Med Chem, 2020).

Series [1] is described as follows: Clearance in Beagle dog at 1 mg/kg, iv by LC-MS/MS analysis. The class given is ADME, organism-based, Canis lupus familiaris. To be noted: in vivo.
Series [2] deals with T1, Solute carrier family 22 member 6 (Homo sapiens, UniProt Q4U2R8).
T1 sequence (Q4U2R8 whole entry): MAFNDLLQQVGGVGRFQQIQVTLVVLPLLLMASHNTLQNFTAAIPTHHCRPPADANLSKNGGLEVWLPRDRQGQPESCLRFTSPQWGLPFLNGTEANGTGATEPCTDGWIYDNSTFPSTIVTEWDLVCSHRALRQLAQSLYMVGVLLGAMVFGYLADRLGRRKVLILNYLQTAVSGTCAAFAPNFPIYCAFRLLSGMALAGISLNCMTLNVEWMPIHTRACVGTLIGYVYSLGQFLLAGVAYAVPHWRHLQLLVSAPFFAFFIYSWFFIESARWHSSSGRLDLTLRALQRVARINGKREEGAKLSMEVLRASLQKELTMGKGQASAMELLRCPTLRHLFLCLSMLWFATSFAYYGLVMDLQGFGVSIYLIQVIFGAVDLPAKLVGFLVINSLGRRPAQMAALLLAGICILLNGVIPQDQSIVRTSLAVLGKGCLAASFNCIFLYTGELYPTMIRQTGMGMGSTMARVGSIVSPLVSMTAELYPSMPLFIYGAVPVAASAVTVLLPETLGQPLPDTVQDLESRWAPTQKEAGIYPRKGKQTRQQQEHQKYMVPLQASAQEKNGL
The series can be described thus: Inhibition of OAT1 (unknown origin).

Series [3] has as its system Rattus norvegicus. The series can be described thus: Antidepressant activity in Wistar rat assessed as immobility time at 10.0 mg/kg, po measured for 5 mins by forced swim test (reference value: 241.9 to 281.6 sec). The class given is functional.
The subject of series [4] is Rattus norvegicus. In words: Antidepressant activity in Wistar rat assessed as reduction in immobility at 1 mg/kg, po administrated for 3 days and measured for 5 mins by forced swim test relative to control. The class given is functional. Also on record: scale not given: the % may be the effect or the level left.
The target in series [5] is T2, Solute carrier organic anion transporter family member 1B1 (Homo sapiens, UniProt Q9Y6L6).
T2 sequence (Q9Y6L6 whole entry): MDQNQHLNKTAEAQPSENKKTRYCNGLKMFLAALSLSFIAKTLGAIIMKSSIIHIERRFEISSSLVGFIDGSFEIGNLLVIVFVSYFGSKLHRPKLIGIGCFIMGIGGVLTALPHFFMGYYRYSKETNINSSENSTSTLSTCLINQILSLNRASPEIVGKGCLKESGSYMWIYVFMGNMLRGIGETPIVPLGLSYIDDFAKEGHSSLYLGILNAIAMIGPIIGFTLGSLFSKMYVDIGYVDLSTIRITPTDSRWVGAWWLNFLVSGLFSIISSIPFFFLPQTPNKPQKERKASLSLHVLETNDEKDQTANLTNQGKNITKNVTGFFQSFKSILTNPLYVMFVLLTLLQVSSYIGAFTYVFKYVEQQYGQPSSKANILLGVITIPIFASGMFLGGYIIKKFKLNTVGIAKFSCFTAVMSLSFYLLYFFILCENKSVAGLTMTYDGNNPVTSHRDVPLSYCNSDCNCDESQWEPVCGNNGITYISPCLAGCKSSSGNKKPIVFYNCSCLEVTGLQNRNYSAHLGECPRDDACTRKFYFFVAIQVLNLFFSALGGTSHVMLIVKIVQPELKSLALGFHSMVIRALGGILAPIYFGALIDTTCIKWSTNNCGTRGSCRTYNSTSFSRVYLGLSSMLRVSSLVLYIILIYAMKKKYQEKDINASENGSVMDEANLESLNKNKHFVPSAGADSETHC
The series can be described thus: Inhibition of OATP1B1 (unknown origin).

For series [6], the target named is Voltage-gated inwardly rectifying potassium channel KCNH2 (Homo sapiens, UniProt Q12809). The series can be described thus: Inhibition of recombinant human ERG expressed in HEK293 at -80 mV holding potential by whole-cell patch clamp method. The class given is cell-based.
Series [7] can be described thus: Metabolic stability in human liver microsomes assessed as compound metabolism incubated for 30 mins in presence of NADPH by LC-MS/MS analysis. The class given is ADME, Microsome. Conditions: read-out: Drug metabolism. (Liver microsomes are vesicles of endoplasmic reticulum, rich in cytochrome P450 enzymes.)
Series [8] is described as follows: Genotoxicity in Salmonella typhimurium TA1537 in absence of metabolic activation. Conditions: salmonella enterica subsp. enterica serovar typhimurium. The class given is toxicity.
Series [9] in a line: Protein binding in dog plasma assessed as unbound fraction at […] incubated for 6 hrs by LC-MS/MS analysis. The class given is ADME, cell-free, Canis lupus familiaris.
Series [10] deals with T3, Solute carrier family 22 member 1 (Homo sapiens, UniProt O15245).
T3 sequence (O15245 whole entry): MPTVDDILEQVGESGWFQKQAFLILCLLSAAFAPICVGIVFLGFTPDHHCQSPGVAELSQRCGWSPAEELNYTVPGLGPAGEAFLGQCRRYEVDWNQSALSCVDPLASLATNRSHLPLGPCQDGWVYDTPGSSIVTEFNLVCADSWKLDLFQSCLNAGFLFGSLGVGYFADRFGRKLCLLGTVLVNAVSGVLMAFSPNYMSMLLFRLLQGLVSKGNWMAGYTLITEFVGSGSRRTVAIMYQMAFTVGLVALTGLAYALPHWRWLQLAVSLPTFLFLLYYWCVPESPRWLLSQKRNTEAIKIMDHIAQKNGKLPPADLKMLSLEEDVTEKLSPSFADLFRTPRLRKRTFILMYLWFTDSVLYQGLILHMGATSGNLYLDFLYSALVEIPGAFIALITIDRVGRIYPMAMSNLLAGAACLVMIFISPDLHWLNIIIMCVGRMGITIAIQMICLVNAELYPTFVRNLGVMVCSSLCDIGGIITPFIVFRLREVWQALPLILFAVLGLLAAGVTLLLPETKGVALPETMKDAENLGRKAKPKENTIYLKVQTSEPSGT
In words: Inhibition of OCT1 (unknown origin).

Series [11] can be described thus: Protein binding in human plasma assessed as unbound fraction at […] incubated for 6 hrs by LC-MS/MS analysis. The class given is ADME, cell-free.
The nature of series [12]: Genotoxicity in Salmonella typhimurium TA1535 in absence of metabolic activation. The class given is toxicity. Conditions: salmonella enterica subsp. enterica serovar typhimurium.
A further series addresses Cytochrome P450 3A4 (Homo sapiens, UniProt P08684). The series can be described thus: Induction of CYP3A4 (unknown origin). The class given is ADME.
A short description of series [13]: Oral bioavailability in Wistar rat at 10 ml/kg measured upto 24 hrs by LC-MS/MS analysis. The class given is ADME, organism-based. To be noted: in vivo.
The nature of series [14]: Ratio of drug level in brain to plasma in Wistar rat at 10 ml/kg, po or 2 ml/kg, iv measured upto 24 hrs by LC-MS/MS analysis. The class given is ADME, organism-based. Conditions: brain and plasma, read-out: BPR; call rule not given here.
Series [15] is described as follows: Genotoxicity in Salmonella typhimurium TA1537 in presence of metabolic activation. The class given is toxicity. Conditions: salmonella enterica subsp. enterica serovar typhimurium.
The nature of series [16]: Tmax in Beagle dog at 3 mg/kg, po by LC-MS/MS analysis. The class given is ADME, organism-based, Canis lupus familiaris. To be noted: in vivo.

Voltage-gated inwardly rectifying potassium channel KCNH2, sequence (Q12809 whole entry): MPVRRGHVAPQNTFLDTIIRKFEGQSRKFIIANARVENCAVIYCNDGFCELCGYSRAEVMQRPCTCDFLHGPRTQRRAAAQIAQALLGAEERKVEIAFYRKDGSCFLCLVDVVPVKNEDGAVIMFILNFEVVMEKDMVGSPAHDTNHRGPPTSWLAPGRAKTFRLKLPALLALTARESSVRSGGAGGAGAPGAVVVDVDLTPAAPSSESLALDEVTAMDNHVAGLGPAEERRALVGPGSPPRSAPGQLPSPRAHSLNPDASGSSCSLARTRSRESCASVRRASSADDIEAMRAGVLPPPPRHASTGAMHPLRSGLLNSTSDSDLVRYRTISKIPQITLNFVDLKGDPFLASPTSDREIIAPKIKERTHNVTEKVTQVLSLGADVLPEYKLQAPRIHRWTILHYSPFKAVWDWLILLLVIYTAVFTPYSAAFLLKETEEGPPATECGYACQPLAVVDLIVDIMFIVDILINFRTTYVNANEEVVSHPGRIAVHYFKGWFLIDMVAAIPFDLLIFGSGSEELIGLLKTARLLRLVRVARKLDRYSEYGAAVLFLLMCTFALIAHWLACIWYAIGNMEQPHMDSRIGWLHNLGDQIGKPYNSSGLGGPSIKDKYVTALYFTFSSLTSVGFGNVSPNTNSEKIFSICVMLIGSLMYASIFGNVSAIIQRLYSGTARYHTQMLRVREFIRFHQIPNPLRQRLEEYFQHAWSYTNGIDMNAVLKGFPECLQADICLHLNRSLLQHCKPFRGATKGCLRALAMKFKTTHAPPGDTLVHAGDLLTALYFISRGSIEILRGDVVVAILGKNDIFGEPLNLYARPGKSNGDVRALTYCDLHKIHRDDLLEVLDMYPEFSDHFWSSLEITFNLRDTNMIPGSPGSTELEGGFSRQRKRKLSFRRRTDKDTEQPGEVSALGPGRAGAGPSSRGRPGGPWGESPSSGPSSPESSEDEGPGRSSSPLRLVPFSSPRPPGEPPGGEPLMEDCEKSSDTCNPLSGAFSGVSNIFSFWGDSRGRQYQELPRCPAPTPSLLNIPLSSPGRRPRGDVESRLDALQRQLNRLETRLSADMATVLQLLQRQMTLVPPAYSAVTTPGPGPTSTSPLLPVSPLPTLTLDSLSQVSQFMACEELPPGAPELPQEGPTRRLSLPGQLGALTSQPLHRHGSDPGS
Cytochrome P450 3A4, sequence (P08684 whole entry): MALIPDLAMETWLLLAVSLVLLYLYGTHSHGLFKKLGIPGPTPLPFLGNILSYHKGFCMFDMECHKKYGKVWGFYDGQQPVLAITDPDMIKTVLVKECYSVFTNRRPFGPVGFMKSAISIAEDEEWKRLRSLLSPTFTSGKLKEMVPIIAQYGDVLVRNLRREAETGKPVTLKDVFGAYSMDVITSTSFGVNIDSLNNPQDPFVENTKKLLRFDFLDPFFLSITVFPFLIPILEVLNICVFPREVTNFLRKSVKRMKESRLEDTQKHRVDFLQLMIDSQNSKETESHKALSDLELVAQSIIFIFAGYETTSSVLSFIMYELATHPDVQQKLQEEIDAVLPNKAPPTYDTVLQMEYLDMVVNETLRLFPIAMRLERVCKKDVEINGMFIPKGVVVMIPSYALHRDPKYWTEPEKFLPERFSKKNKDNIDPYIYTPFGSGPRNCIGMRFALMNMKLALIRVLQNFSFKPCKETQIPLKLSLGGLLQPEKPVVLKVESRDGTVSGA

As to `Cl.Clc1ccc(OC[C@@H]2C[C@H]3C[C@H]3N2)cn1`, the clearance in series [1] worked out at 10 mL/min/kg. Moreover, the “inhibition (INH)” value in series [2], in [5] and in series [10] was “Not Active” in each case. Further, the Time in the series on Rattus norvegicus [3] amounted to 81.5 s. For the same compound, the Activity in the series on Rattus norvegicus [4] is 29.35%; in series [8] it was “Non-Toxic”; in series [12] it was “Non-Toxic”; at Cytochrome P450 3A4, “Not Active”; in series [15], “Non-Toxic”. The IC50 in series [6] was greater than 10 µM. The metabolised at 0.5 h in series [7] was 33.4%. Moreover, the fraction unbound at 6 h in series [9] worked out at 0.31; in [11], 0.21. This compound registered a bioavailability in series [13] of 66%. In series [14], the Kp at 24 h is 2.34. Moreover, the Tmax in series [16] worked out at 18 min.

For orientation: clearance means the rate of elimination divided by the concentration. The IC50 is the concentration needed to halve the response being measured. Usually fraction unbound stands for the share of the substance not bound to proteins or other matrix. Usually bioavailability stands for dose-corrected exposure relative to a reference, in per cent. In general, Tmax refers to the time at which the peak concentration occurs.
